Data reported in US20100190788A1, “Amide derivatives as kinase inhitors” (priority 2005, published 2010).

Biological target: T1, human ROCKα/ROCKII mix (Homo sapiens, UniProt O75116)
T1 construct: purchased Upstate Biotechnology 14-451
Assay: ROCK inhibition, fluorescence polarization (FP) assay with ROCK IMAP Kit
Assay type: biochemical
Conditions: Table 2, compounds of Formula V20
Method: The compounds were tested for inhibition of human ROCKα/ROCKII mix.
The inhibition assays were performed with a fluorescence polarization (FP) assay using the commercially available ROCK IMAP Kit from Molecular Devices (Product ID. No. R8093), essentially in accordance with the protocol supplied by the manufacturer. […] The enzyme mix ROCKα/ROCKII was obtained from Upstate Biotechnology (Product ID No 14-451).
In summary, all compounds were screened in the wells of a 384 well plate for enzymatic inhibition with concentrations varying from 100 μM to 0.3 nM using a stepwise 3 (or 2)-fold dilution.
To perform the assay, 1 μl of a solution of the compound to be tested in DMSO (at each concentration) was added to 2 μl of a solution of the enzyme in 10 mM Tris-HCl, 10 mM MgCl2, 0.1% BSA, 0.05% NaN3, pH 7.2. The final concentration of the enzyme was 2.6 nM.
After incubating for 30 minutes at RT, 2 μl of a mixture of ATP and the protein substrate in 10 mM Tris-HCl, 10 mM MgCl2, 0.1% BSA, 0.05% NaN3, pH 7.2 was added. The final concentration of the ATP was 10 μM and final concentration of protein substrate was 0.2 μM.
After incubating for 60 minutes at RT, 12 μl of the IMAP Binding Solution (mix of the IMAP Binding Buffer A (1×) and the IMAP Binding Reagent (from the ROCK IMAP kit)) was added.
The mixture thus obtained (total volume: 17 μl) was incubated for 60 minutes at RT, upon which the fluorescence polarization was measured using an automated plate reader (Perkin Elmer, Model Envision 2100-0010 HTS) with FP filters: excitation filter FITC FP 480 and emission filters FITC FP P-pol 535 and FITC FP S-pol 535 (Perkin-Elmer). The results were fitted to a curve using the XL-Fit algorithm and IC50 values were calculated for each fitted curve, again using the XL-Fit algorithm.

T1 sequence (O75116 whole entry): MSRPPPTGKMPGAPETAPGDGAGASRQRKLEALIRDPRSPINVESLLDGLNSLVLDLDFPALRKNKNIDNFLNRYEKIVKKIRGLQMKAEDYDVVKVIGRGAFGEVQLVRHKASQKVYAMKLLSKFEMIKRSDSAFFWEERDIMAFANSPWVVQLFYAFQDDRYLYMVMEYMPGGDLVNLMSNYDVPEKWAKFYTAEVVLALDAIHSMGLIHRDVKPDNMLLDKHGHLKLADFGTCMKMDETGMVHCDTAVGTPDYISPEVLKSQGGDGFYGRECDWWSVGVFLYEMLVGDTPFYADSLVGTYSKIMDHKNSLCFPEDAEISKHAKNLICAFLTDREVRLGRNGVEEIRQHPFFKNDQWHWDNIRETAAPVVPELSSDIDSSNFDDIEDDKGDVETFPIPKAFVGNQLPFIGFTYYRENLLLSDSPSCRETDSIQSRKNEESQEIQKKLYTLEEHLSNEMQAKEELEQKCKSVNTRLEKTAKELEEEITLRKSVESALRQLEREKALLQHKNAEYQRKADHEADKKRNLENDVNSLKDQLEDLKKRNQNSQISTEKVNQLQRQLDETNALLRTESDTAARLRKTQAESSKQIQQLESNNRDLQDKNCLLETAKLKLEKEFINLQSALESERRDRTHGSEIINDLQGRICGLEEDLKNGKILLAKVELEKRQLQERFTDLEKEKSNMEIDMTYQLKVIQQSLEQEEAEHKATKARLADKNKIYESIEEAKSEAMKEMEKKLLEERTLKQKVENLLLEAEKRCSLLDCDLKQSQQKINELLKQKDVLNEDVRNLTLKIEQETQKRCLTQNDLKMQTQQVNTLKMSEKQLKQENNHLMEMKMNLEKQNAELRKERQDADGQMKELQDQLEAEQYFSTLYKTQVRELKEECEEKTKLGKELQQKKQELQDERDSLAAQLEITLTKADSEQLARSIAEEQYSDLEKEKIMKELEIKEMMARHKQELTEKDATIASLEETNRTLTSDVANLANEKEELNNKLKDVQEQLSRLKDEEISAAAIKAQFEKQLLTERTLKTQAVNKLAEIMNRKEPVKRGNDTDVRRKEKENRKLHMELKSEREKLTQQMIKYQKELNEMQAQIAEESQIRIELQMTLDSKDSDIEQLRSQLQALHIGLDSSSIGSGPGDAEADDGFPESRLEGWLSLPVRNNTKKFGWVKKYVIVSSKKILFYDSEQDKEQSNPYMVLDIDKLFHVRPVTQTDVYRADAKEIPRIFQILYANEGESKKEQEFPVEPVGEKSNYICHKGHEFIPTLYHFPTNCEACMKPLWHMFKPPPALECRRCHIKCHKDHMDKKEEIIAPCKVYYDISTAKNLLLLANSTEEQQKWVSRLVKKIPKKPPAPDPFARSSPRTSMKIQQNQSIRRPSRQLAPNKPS

SMILES | IC50 [µM]
Cc1ccc(S(=O)(=O)NCC(N)c2ccc(C(=O)Nc3ccncc3)cc2)cc1 (stereo not drawn) [Compound 62, 4-[1-amino-2-(4-methyl-benzenesulfonylamino)-ethyl]-N-pyridin-4-yl-benzamide] | < 0.5
Cc1cccc(S(=O)(=O)NCC(N)c2ccc(C(=O)Nc3ccncc3)cc2)c1 (stereo not drawn) [Compound 63] | < 0.5
NC(CNS(=O)(=O)c1ccc(F)cc1)c1ccc(C(=O)Nc2ccncc2)cc1 (stereo not drawn) [Compound 65, 4-[1-amino-2-(4-fluoro-benzenesulfonylamino)-ethyl]-N-pyridin-4-yl-benzamide] | < 0.5
NC(CNS(=O)(=O)c1ccccc1F)c1ccc(C(=O)Nc2ccncc2)cc1 (stereo not drawn) [Compound 66, 4-[1-amino-2-(2-fluoro-benzenesulfonylamino)-ethyl]-N-pyridin-4-yl-benzamide] | < 0.5
NC(CNS(=O)(=O)c1ccc(Cl)cc1)c1ccc(C(=O)Nc2ccncc2)cc1 (stereo not drawn) [Compound 67, 4-[1-amino-2-(4-chloro-benzenesulfonylamino)-ethyl]-N-pyridin-4-yl-benzamide] | < 0.5
NC(CNS(=O)(=O)c1ccccc1Cl)c1ccc(C(=O)Nc2ccncc2)cc1 (stereo not drawn) [Compound 69, 4-[1-amino-2-(2-chloro-benzenesulfonylamino)-ethyl]-N-pyridin-4-yl-benzamide] | < 0.5
COc1ccc(S(=O)(=O)NCC(N)c2ccc(C(=O)Nc3ccncc3)cc2)cc1 (stereo not drawn) [Compound 70, 4-[1-amino-2-(4-methoxy-benzenesulfonylamino)-ethyl]-N-pyridin-4-yl-benzamide] | < 0.5
COc1ccc(OC)c(S(=O)(=O)NCC(N)c2ccc(C(=O)Nc3ccncc3)cc2)c1 (stereo not drawn) [Compound 72, 4-[1-amino-2-(2,5-dimethoxy-benzenesulfonylamino)-ethyl]-N-pyridin-4-yl-benzamide] | < 0.5

Next, values leading:

IC50 [µM] | SMILES
0.5 to 5 | CCCCCCCCS(=O)(=O)NCC(N)c1ccc(C(=O)Nc2ccncc2)cc1 (stereo not drawn) [Compound 59, 4-[1-amino-2-(octane-1-sulfonylamino)-ethyl]-N-pyridin-4-yl-benzamide]
< 0.5 | NC(CNS(=O)(=O)Cc1ccccc1)c1ccc(C(=O)Nc2ccncc2)cc1 (stereo not drawn) [Compound 60, 4-(1-amino-2-phenylmethanesulfonylamino-ethyl)-N-pyridin-4-yl-benzamide]
< 0.5 | NC(CNS(=O)(=O)c1ccccc1)c1ccc(C(=O)Nc2ccncc2)cc1 (stereo not drawn) [Compound 61, 4-(1-amino-2-benzenesulfonylamino-ethyl)-N-pyridin-4-yl-benzamide]
< 0.5 | Cc1ccccc1S(=O)(=O)NCC(N)c1ccc(C(=O)Nc2ccncc2)cc1 (stereo not drawn) [Compound 64, 4-[1-amino-2-(2-methyl-benzenesulfonylamino)-ethyl]-N-pyridin-4-yl-benzamide]
< 0.5 | NC(CNS(=O)(=O)c1cccc(Cl)c1)c1ccc(C(=O)Nc2ccncc2)cc1 (stereo not drawn) [Compound 68, 4-[1-amino-2-(3-chloro-benzenesulfonylamino)-ethyl]-N-pyridin-4-yl-benzamide]
< 0.5 | COc1ccc(S(=O)(=O)NCC(N)c2ccc(C(=O)Nc3ccncc3)cc2)cc1OC (stereo not drawn) [Compound 71, 4-[1-amino-2-(3,4-dimethoxy-benzenesulfonylamino)-ethyl]-N-pyridin-4-yl-benzamide]
0.5 to 5 | NC(CNS(=O)(=O)c1cccc(Oc2ccccc2)c1)c1ccc(C(=O)Nc2ccncc2)cc1 (stereo not drawn) [Compound 73, 4-[1-amino-2-(3-phenoxy-benzenesulfonylamino)-ethyl]-N-pyridin-4-yl-benzamide]
0.5 to 5 | NC(CNS(=O)(=O)c1ccc(Oc2ccccc2)cc1)c1ccc(C(=O)Nc2ccncc2)cc1 (stereo not drawn) [Compound 74, 4-[1-amino-2-(4-phenoxy-benzenesulfonylamino)-ethyl]-N-pyridin-4-yl-benzamide]
0.5 to 5 | NC(CNS(=O)(=O)c1cccc(-c2ccccc2)c1)c1ccc(C(=O)Nc2ccncc2)cc1 (stereo not drawn) [Compound 75]
0.5 to 5 | NC(CNS(=O)(=O)c1ccc(-c2ccccc2)cc1)c1ccc(C(=O)Nc2ccncc2)cc1 (stereo not drawn) [Compound 76]
